Data from patent US20240376085A1 (Janssen Pharmaceutica NV, priority 2021, published 2024).

How the values were obtained:
[1] = test system: IL-17A-induced G-CSF production in human normal keratinocyte (NHK); test: NHK assay: IL-17A-induced G-CSF production in normal human keratinocytes; format: cell-based; details: 24 h, IL-17A 5 ng/mL, average if tested more than once
Protocol: IL-17A acts directly on keratinocytes through binding to dimeric receptor IL-17RA/RC and drives the production of a number of inflammatory mediators known to be elevated in psoriasis lesional tissue. IL-17A small molecule inhibitors that block the IL-17A to interact with IL-17R would inhibit the IL-17A signaling in its targeted cells such as keratinocytes. The compound functional activity is evaluated for its impact on IL-17A-induced G-CSF production in human normal keratinocyte (NHK).
Adult normal human keratinocytes are cultured in keratinocyte growth medium (Lonza) in a flask till reaching ˜90% confluence, then cells are transferred to a 384-well plate at density of 3000-4000 cell/well. Recombinant human IL-17A (Gibco PHC9174) is pre-incubated with titrated compound or DMSO for 1 h at rt then added to the cell culture plate. The final concentration of IL-17A is 5 ng/mL and DMSO is 0.2%, in the culture containing 5% FBS. Cells are cultured/treated for 24 h at 37° C. Supernatants are collected and G-CSF production is measured through HTRF technology using Human G-CSF Kit (CisBio). G-CSF concentration was extrapolated from the standard curve and IC50 is determined using GraphPad Prism. Cell viability is also evaluated using CellTiter-Glo kit (Promega) and effect of compound on cell viability is compared to DMSO control.

[2] = biological target: T1, IL-17A : IL-17RA binding (Homo sapiens, UniProt Q16552, K93Q); test: IL-17A(FLAG-tagged):IL-17RA(His-tagged) binding disruption Eu-HTRF assay, Protocol 1; details: FLAG-IL-17A 2.5 nM at 2x final concentration; average if tested more than once
T1 construct: Name: IL-17A-Flag
Description: An antibody directed against the FLAG tag of IL-17A (SEQ ID NO: 1) is labeled with the HTRF donor chromophore (Europium-cryptate). IL-17A is present as a dimer that is “locked into” this quaternary structure due to the formation of loop-spanning […] disulfide bridges. The construct of IL-17RA used in the assay excludes the […] portion of the receptor and is fused to a C-terminal 10×His tag (SEQ ID NO:2). An antibody directed against the His tag of the IL-17RA chimera is labeled with the HTRF acceptor chromophore (“D2”). The fluorescence-resonance energy transfer (FRET) depends on the vicinity of the donor chromophore to the acceptor, and interruption of the binding between the IL-17A and IL-17RA causes the reduction/loss of FRET. Therefore, this assay allows to evaluate the compound effect on the binding IL-17A and IL-17RA by monitoring the fluorescence intensity of donor vs acceptor. The assay was run using either Protocol 1 or Protocol 2 as described below.
Protocol 1. 40 nl of 2-fold serial diluted compound solution for total 22 dilution points is added into each well of a 1536-well, white, low-volume, non-binding plate (Greiner #782904), then 2 μl of FLAG tagged IL-17A at 2× final concentration (2.5 nM) in solution of PBS+0.01% Triton-X100 is added to each well. The assay plate is briefly centrifuged then incubated for 1 h at rt. A mixed solution is prepared containing 2×5 nM 10HIS×IL-17RA, 2×2.5 nM Eu-anti-FLAG (CISBIO), 2×5 nM D2-anti-HIS (CISBIO) in PBS+0.01% Triton-X100+200 mM Potassium Fluoride (Sigma 60238) and 2 μl of mix is added to each well of the assay plate. The plate is briefly centrifuged then incubated for 2 h at rt. The HTRF intensities at the wavelength of donor (620 nm) and acceptor (665 nm) are measured using BMG Pherastar. The ratio between intensities at two wavelengths is calculated and plotted against the compound concentration and the data is fitted to a one-site competition model to yield IC50 of the compound.

T1 sequence (Q16552 with tags, fused parts or gaps K93Q): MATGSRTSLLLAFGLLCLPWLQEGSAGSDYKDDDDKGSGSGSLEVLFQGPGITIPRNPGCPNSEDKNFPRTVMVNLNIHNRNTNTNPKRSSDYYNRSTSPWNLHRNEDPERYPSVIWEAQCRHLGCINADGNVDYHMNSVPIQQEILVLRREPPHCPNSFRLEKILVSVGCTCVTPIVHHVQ

Row | SMILES | IC50 ([1]; Homo sapiens, Keratinocyte) [nM] | IC50 [2] [nM] | IC50 [1] [nM]
1 | C[C@@H](NC(=O)CCC(F)(F)F)c1ccc2[nH]c(C(CC(C)(C)C(F)(F)F)NC(=O)c3ncnn3CC3CC3)nc2c1 (single isomer, unassigned) [Example 195, 1-(Cyclopropylmethyl)-N—((S*)-4,4,4-trifluoro-3,3-dimethyl-(5-((R)-1-(4,4,4-trifluorobutanamido)ethyl)-1H-benzo[d]imidazol-2-yl)butyl)-1H-1,2,4-triazole-5-carboxamide] | > 100 | > 100 | 
2 | C[C@@H](NC(=O)CCC(F)(F)F)c1ccc2[nH]c([C@@H](NC(=O)c3ncnn3CCC(F)F)C3CCC(F)(F)CC3)nc2c1 [Example 41, N—[(S)-(4,4-Difluorocyclohexyl)-[6-[(1R)-1-(4,4,4-trifluorobutanoylamino)ethyl]-1H-benzimidazol-2-yl]methyl]-2-(3,3-difluoropropyl)-1,2,4-triazole-3-carboxamide] | > 100 | > 100 | 
3 | CCc1nonc1C(=O)NC(CC(C)(C)C(F)(F)F)c1nc2cc([C@@H](C)NC(=O)CCC(F)(F)F)ccc2[nH]1 (single isomer, unassigned) [Example 197, 4-Ethyl-N—((S*)-4,4,4-trifluoro-3,3-dimethyl-1-(5-((R)-1-(4,4,4-trifluorobutanamido)ethyl)-1H-benzo[d]imidazol-2-yl)butyl)-1,2,5-oxadiazole-3-carboxamide] | 50 to 100 | < 50 | 
4 | O=C(CC1CC(F)(F)C1)N[C@@H](c1ccc2nc([C@@H](NC(=O)c3nonc3C3CC3)[C@H]3CCCC(F)(F)C3)[nH]c2c1)C1CC1 [Example 170, 4-Cyclopropyl-N—((S)-(6-((R)-cyclopropyl(2-(3,3-difluorocyclobutyl)acetamido)methyl)-1H-benzo[d]imidazol-2-yl)((S)-3,3-difluorocyclohexyl)methyl)-1,2,5-oxadiazole-3-carboxamide] | < 50 | < 50 | 
5 | C[C@@H](NC(=O)CCC(F)(F)F)c1ccc2[nH]c([C@@H](NC(=O)c3ccn(CCC(F)(F)F)n3)C3CCC(F)(F)CC3)nc2c1 [Example 2, N—[(S)-(4,4-Difluorocyclohexyl)-[6-[(1R)-1-(4,4,4-trifluorobutanoylamino)ethyl]-1H-benzimidazol-2-yl]methyl]-1-(3,3,3-trifluoropropyl)pyrazole-3-carboxamide] | > 100 | > 100 | 
6 | CC(OCC(NC(=O)c1nonc1C1CC1)c1nc2ccc([C@H](NC(=O)CC3CC(F)(F)C3)C3CC3)cc2[nH]1)C(F)(F)F (single isomer, unassigned) [Example 153, 4-Cyclopropyl-N-((1R*)-1-(6-((R)-cyclopropyl(2-(3,3-difluorocyclobutyl)acetamido)methyl)-1H-benzo[d]imidazol-2-yl)-2-((1,1,1-trifluoropropan-2-yl)oxy)ethyl)-1,2,5-oxadiazole-3-carboxamide] | > 100 | < 50 | 
7 | C[C@@H](NC(=O)CCC(F)(F)F)c1ccc2[nH]c([C@@H](NC(=O)c3cnnn3CC(F)(F)F)C3CCC(F)(F)CC3)nc2c1 [Example 23, N—[(S)-(4,4-Difluorocyclohexyl)-[6-[(1R)-1-(4,4,4-trifluorobutanoylamino)ethyl]-1H-benzimidazol-2-yl]methyl]-3-(2,2,2-trifluoroethyl)triazole-4-carboxamide] | > 100 | > 100 | 
8 | Cc1nonc1C(=O)N[C@H](c1nc2ccc([C@H](NC(=O)CC3CC(F)(F)C3)C3CC3)cc2[nH]1)[C@H]1C[C@H](CC(F)(F)F)C1 (single isomer, unassigned) [Example 245] | > 100 | > 100 | 
9 | CC(NC(=O)CCC(F)(F)F)c1ccc2nc([C@H](CC(C)(C)C(F)(F)F)NC(=O)c3ccnn3CCC(F)(F)F)[nH]c2c1 (single isomer, unassigned) [Example 230, N—((S)-4,4,4-Trifluoro-3,3-dimethyl-1-(6-((R*)-1-(4,4,4-trifluorobutanamido)ethyl)-1H-benzo[d]imidazol-2-yl)butyl)-1-(3,3,3-trifluoropropyl)-1H-pyrazole-5-carboxamide] |  | > 100 | 50 to 100
10 | CC(C)(OCC(NC(=O)c1nonc1C1CC1)c1nc2ccc([C@H](NC(=O)CC3CC(F)(F)C3)C3CC3)cc2[nH]1)C(F)(F)F (single isomer, unassigned) [Example 163, 4-Cyclopropyl-N—((S*)-1-(6-((R)-cyclopropyl(2-(3,3-difluorocyclobutyl)acetamido)methyl)-1H-benzo[d]imidazol-2-yl)-2-((1,1,1-trifluoro-2-methylpropan-2-yl)oxy)ethyl)-1,2,5-oxadiazole-3-carboxamide] | > 100 | > 100 | 
11 | C[C@@H](NC(=O)CCC(F)(F)F)c1ccc2[nH]c([C@@H](NC(=O)[C@@H]3C[C@@H]3F)C3CCC(F)(F)CC3)nc2c1 [Example 101, (1S,2S)—N—((S)-(4,4-Difluorocyclohexyl)(5-((R)-1-(4,4,4-trifluorobutanamido)ethyl)-1H-benzo[d]imidazol-2-yl)methyl)-2-fluorocyclopropane-1-carboxamide] | > 100 | > 100 | 
12 | C[C@@H](NC(=O)CCC(F)(F)F)c1ccc2[nH]c([C@@H](NC(=O)[C@@H]3C[C@H]3C(F)(F)F)C3CCC(F)(F)CC3)nc2c1 (relative stereo) [Example 106, trans-(1R*,2R*)—N—((S)-(4,4-Difluorocyclohexyl)(5-((R)-1-(4,4,4-trifluorobutanamido)ethyl)-1H-benzo[d]imidazol-2-yl)methyl)-2-(trifluoromethyl)cyclopropane-1-carboxamide] | > 100 | > 100 | 
13 | CCC(NC(=O)CCC(F)(F)F)c1ccc2[nH]c([C@@H](NC(=O)c3ccnn3C)C3CCC(F)(F)CC3)nc2c1 (single isomer, unassigned) [Example 52, N—((S)-(4,4-Difluorocyclohexyl)(5-((S*)-1-(4,4,4-trifluorobutanamido)propyl)-1H-benzo[d]imidazol-2-yl)methyl)-1-methyl-1H-pyrazole-5-carboxamide] | > 100 | > 100 | 
14 | CC(C)n1nccc1C(=O)N[C@@H](c1nc2ccc([C@H](NC(=O)CC3CC(F)(F)C3)C3CC3)cc2[nH]1)[C@@H]1CCCCO1 (relative stereo) [Example 251, N—((S*)-(6-((R)-Cyclopropyl(2-(3,3-difluorocyclobutyl)acetamido)methyl)-1H-benzo[d]imidazol-2-yl)((S*)-tetrahydro-2H-pyran-2-yl)methyl)-1-isopropyl-1H-pyrazole-5-carboxamide] | > 100 | > 100 | 
15 | C[C@@H](NC(=O)CCC(F)(F)F)c1ccc2[nH]c([C@@H](NC(=O)c3cnn(C)c3CCC(F)(F)F)C3CCC(F)(F)CC3)nc2c1 [Example 6, N—[(S)-(4,4-Difluorocyclohexyl)-[6-[(1R)-1-(4,4,4-trifluorobutanoylamino)ethyl]-1H-benzimidazol-2-yl]methyl]-1-methyl-5-(3,3,3-trifluoropropyl)pyrazole-4-carboxamide] | > 100 | > 100 | 
16 | C[C@@H](NC(=O)CCC(F)(F)F)c1ccc2[nH]c([C@@H](NC(=O)c3nnc(CCC(F)(F)F)o3)C3CCC(F)(F)CC3)nc2c1 [Example 187, N—((S)-(4,4-Difluorocyclohexyl)(5-((R)-1-(4,4,4-trifluorobutanamido)ethyl)-1H-benzo[d]imidazol-2-yl)methyl)-5-(3,3,3-trifluoropropyl)-1,3,4-oxadiazole-2-carboxamide] | > 100 |  | 
